{
  "source": "paper PMC7010297",
  "about": "“How the initiating ribosome copes with ppGpp to translate mRNAs” (PLoS Biology, 2020)",
  "key": {"[1]": {"target": "T1, 30S IC (30S-bound IF2, Bpy-tRNAi) (Escherichia coli, UniProt P0A705)", "T1 construct": "6xHis (N); made in house", "T1 sequence (P0A705 whole entry, looked up)": "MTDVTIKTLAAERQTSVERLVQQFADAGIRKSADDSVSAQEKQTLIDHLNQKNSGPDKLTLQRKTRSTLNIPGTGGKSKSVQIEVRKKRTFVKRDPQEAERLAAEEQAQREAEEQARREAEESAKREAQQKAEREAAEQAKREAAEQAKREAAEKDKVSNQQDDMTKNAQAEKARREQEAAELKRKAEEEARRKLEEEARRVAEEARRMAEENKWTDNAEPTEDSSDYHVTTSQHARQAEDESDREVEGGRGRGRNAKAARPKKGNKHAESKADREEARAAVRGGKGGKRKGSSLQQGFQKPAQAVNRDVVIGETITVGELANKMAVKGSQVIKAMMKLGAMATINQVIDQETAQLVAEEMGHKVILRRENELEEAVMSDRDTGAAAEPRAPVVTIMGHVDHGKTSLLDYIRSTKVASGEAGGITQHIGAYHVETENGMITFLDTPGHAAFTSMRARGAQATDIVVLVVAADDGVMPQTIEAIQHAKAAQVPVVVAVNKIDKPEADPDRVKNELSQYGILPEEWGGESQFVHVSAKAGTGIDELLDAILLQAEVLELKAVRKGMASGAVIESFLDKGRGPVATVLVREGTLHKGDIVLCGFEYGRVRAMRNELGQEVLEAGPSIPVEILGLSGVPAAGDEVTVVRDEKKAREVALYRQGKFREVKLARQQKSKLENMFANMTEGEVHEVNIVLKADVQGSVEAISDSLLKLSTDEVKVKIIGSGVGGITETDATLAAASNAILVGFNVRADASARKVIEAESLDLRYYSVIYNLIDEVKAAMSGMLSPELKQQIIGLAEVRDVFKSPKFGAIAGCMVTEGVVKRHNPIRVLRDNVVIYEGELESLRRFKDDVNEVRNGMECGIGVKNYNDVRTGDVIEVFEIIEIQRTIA", "test": "30S IC formation measured by MST at increasing concentrations of IF2 with guanosine nucleotides", "type": "binding", "settings": "Fig 2A", "source_text": "(§1) To monitor the interaction of initiator tRNA and 30S ribosomal subunits, we used Microscale Thermophoresis (MST) with a fluorescently labelled initiator tRNA (Bpy-tRNAi) (Fig 1B). MST allows to measure fluorescence in a constrained space. Changes on the readout derive from molecular drifts resulting from small thermal equilibrium perturbations. Upon equilibrium perturbations, the patterns of Bpy-tRNAi migration away from the observation space are related to bound and unbound states (Fig 1B). […] On the contrary, a decrease in thermophoresis indicated the dissociation of Bpy-tRNAi. The relation between fluorescence measured at both equilibriums (Ff to Fi, after and prior to the perturbation, respectively) as a function of ligand concentration allowed to determine dissociation constants of the interaction (Fig 1C).\n(§2) Continuous lines indicate nonlinear regression fittings with a quadratic equation. Three measurements were performed; mean and standard deviation are plotted (S1 Data). (B) as (A) to measure the concentration dependence for each tested guanosine nucleotide at constant IF2 (1 μM). […] Continuous lines show best fits using exponential functions. (D) Formation of 70S IC as measured by Bpy-tRNAi accommodation in the P site of the ribosome; 0.1 μM 30S ICs were formed with Bpy-tRNAi and rapidly mixed with 0.3 μM 50S subunits on a stopped-flow apparatus as described in [14]. Colors are as in (C). Continuous lines show best fits using an exponential function for a single reaction step. Each stopped-flow trace results from the mean of 5 to 7 replicates."}, "70S IC": {"target": "T2, 70S IC (Escherichia coli, UniProt P0A705)", "T2 construct": "6xHis (N); made in house", "T2 sequence (P0A705 whole entry, looked up)": "as above", "test": "70S IC formation by Bpy-tRNAi accommodation, stopped-flow", "type": "biochemical", "experimental": "as §2\n(§3) (A) Scheme of 70S IC formation. […] Time traces were analyzed by nonlinear regression with exponential terms. […] Formation of 70S IC, as measured by Bpy-tRNAi accommodation in the absence (F) or presence of 200 μM ppGpp (G). Time traces were analyzed by nonlinear regression with one exponential term. […] Continuous lines show best fits using an exponential function for a single reaction step. All time traces are mean values of 5 to 10 replicates. Bar graphs show mean and standard errors (error bars) derived from the nonlinear regression fitting (D,E,H,I) (S1 Data).\n(§4) To measure 70S pre-IC formation, a SX-20 stopped-flow instrument (Applied Photophysics, Leatherhead, UK) was set up for LS recording with an excitation wavelength of 430 nm. Scattered light was measured at an angle of 90° without a filter. Pseudo first-order conditions were approximated by using ≥3-fold excess of 50S subunits over 30S ICs; 0.2 μM 30S ICs were rapidly mixed in the instrument with 0.6 μM 50S at 25 °C. Bpy-tRNAi accommodation was measured essentially as described elsewhere. Briefly, 0.2 μM 30S ICs were formed using Bpy-tRNAi and rapidly mixed with 0.6 μM 50S at 25 °C. Fluorescence was excited at 470 nm and measured after a 495-nm longpass filter. Individual traces (6–11 traces) were averaged, and the resulting kinetic curve was approximated by single (F = A0 + A1*exp (-kapp1*t)) or double (F = A0 + A1*exp (-kapp1*t) + A2*exp (-kapp2*t)) exponential fit using Graphpad Prism 6.0 software (GraphPad, San Diego, California)."}, "IF2-bound 30S IC": {"target": "T3, IF2-bound 30S IC (Escherichia coli, UniProt P0A705)", "T3 construct": "6xHis (N); made in house", "T3 sequence (P0A705 whole entry, looked up)": "as above", "test": "30S IC formation by MST, guanosine nucleotide titration", "type": "binding", "settings": "for MST Average / MST Replicates (a.u.): Fig 2B", "source_text": "as §1, §2\nMST was calculated from the respective fluorescence time dependencies (S3 Fig). […] Symbols as in (B). […] Continuous lines indicate nonlinear regression fittings with quadratic (B and E) or same-site competition (G) functions. Three measurements were performed; mean and standard deviations are plotted (S1 Data)."}, "[2]": {"target": "T4, 70S pre-IC (50S joining to 30S IC) (Escherichia coli, UniProt P0A705)", "T4 construct": "6xHis (N); made in house", "T4 sequence (P0A705 whole entry, looked up)": "as above", "test": "70S pre-IC formation by light scattering, stopped-flow", "type": "biochemical", "settings": "30S complexes formed with 0.2 mM nucleotide, mixed with 50S subunits", "experimental": "as §2, §3, §4"}},
  "note": "“And” between values parts separate entries of the source, which are not always exact repeats. Equal entries are not always repeated.",
  "data": [
    {"smiles": "Nc1nc2c(ncn2[C@@H]2O[C@H](COP(=O)(O)OP(=O)(O)OP(=O)(O)O)[C@@H](OP(=O)(O)OP(=O)(O)O)[C@H]2O)c(=O)[nH]1", "note": "[pppGpp]", "values": [
      {"measurement": "MST Average", "setting": "[1]; IF2 0.16 µM", "value": 944.96, "unit": "a.u."},
      {"measurement": "MST Replicates (a.u.)", "setting": "[1]; IF2 0.16 µM, in the presence of the nucleotide", "value": "945.84 a.u. (2×) and 943.18 a.u."},
      {"measurement": "MST Average", "setting": "[1]; IF2 0.31 µM", "value": 951.85, "unit": "a.u."},
      {"measurement": "MST Replicates (a.u.)", "setting": "[1]; IF2 0.31 µM", "value": "948.28 a.u. and 951.55 a.u. and 955.73 a.u."},
      {"measurement": "MST Average", "setting": "[1]; IF2 0.63 µM", "value": 965.81, "unit": "a.u."},
      {"measurement": "MST Replicates (a.u.)", "setting": "[1]; IF2 0.63 µM", "value": "963.82 a.u. and 965.27 a.u. and 968.34 a.u."},
      {"measurement": "MST Average", "setting": "[1]; IF2 1.25 µM", "value": 989.55, "unit": "a.u."},
      {"measurement": "MST Replicates (a.u.)", "setting": "[1]; IF2 1.25 µM", "value": "985.24 a.u. and 988.50 a.u. and 994.92 a.u."},
      {"measurement": "MST Average", "setting": "[1]; IF2 2.50 µM", "value": 1020.82, "unit": "a.u."},
      {"measurement": "MST Replicates (a.u.)", "setting": "[1]; IF2 2.50 µM", "value": "1014.01 a.u. and 1021.45 a.u. and 1027.00 a.u."},
      {"measurement": "MST Average", "setting": "[1]; IF2 5.00 µM", "value": 1015.83, "unit": "a.u."},
      {"measurement": "MST Replicates (a.u.)", "setting": "[1]; IF2 5.00 µM", "value": "1011.56 a.u. and 1015.17 a.u. and 1020.77 a.u."},
      {"measurement": "kapp of Bpy-tRNAi accommodation (70S IC formation)", "setting": "70S IC; 30S ICs formed with 0.2 mM nucleotide, mixed with 50S subunits", "value": "1.2 ± 0.2", "unit": "s^–1"},
      {"measurement": "Bpy-tRNAi accommodation slower than with GTP", "setting": "70S IC; compared to GTP-bound IF2", "value": 2, "unit": "fold"},
      {"measurement": "MST Average", "setting": "IF2-bound 30S IC; nucleotide 0.005 µM", "value": 927.64, "unit": "a.u."},
      {"measurement": "MST Replicates (a.u.)", "setting": "IF2-bound 30S IC; nucleotide 0.005 µM, constant IF2 (1 μM)", "value": "925.66 a.u. and 928.15 a.u. and 929.12 a.u."},
      {"measurement": "MST Average", "setting": "IF2-bound 30S IC; nucleotide 0.01 µM", "value": 929.62, "unit": "a.u."},
      {"measurement": "MST Replicates (a.u.)", "setting": "IF2-bound 30S IC; nucleotide 0.01 µM", "value": "928.28 a.u. and 930.44 a.u. and 930.13 a.u."},
      {"measurement": "MST Average", "setting": "IF2-bound 30S IC; nucleotide 0.02 µM", "value": 931.44, "unit": "a.u."},
      {"measurement": "MST Replicates (a.u.)", "setting": "IF2-bound 30S IC; nucleotide 0.02 µM", "value": "929.17 a.u. and 931.64 a.u. and 933.52 a.u."},
      {"measurement": "MST Average", "setting": "IF2-bound 30S IC; nucleotide 0.04 µM", "value": 936.26, "unit": "a.u."},
      {"measurement": "MST Replicates (a.u.)", "setting": "IF2-bound 30S IC; nucleotide 0.04 µM", "value": "935.68 a.u. and 936.43 a.u. and 936.67 a.u."},
      {"measurement": "MST Average", "setting": "IF2-bound 30S IC; nucleotide 0.08 µM", "value": 942.88, "unit": "a.u."},
      {"measurement": "MST Replicates (a.u.)", "setting": "IF2-bound 30S IC; nucleotide 0.08 µM", "value": "942.08 a.u. and 943.53 a.u. and 943.02 a.u."},
      {"measurement": "MST Average", "setting": "IF2-bound 30S IC; nucleotide 0.16 µM", "value": 950.27, "unit": "a.u."},
      {"measurement": "MST Replicates (a.u.)", "setting": "IF2-bound 30S IC; nucleotide 0.16 µM", "value": "947.31 a.u. and 952.19 a.u. and 951.31 a.u."},
      {"measurement": "MST Average", "setting": "IF2-bound 30S IC; nucleotide 0.31 µM", "value": 960.78, "unit": "a.u."},
      {"measurement": "MST Replicates (a.u.)", "setting": "IF2-bound 30S IC; nucleotide 0.31 µM", "value": "960.77 a.u. and 960.89 a.u. and 960.69 a.u."},
      {"measurement": "MST Average", "setting": "IF2-bound 30S IC; nucleotide 0.63 µM", "value": 981.69, "unit": "a.u."},
      {"measurement": "MST Replicates (a.u.)", "setting": "IF2-bound 30S IC; nucleotide 0.63 µM", "value": "982.02 a.u. and 981.68 a.u. and 981.38 a.u."},
      {"measurement": "MST Average", "setting": "IF2-bound 30S IC; nucleotide 1.25 µM", "value": 1004.44, "unit": "a.u."},
      {"measurement": "MST Replicates (a.u.)", "setting": "IF2-bound 30S IC; nucleotide 1.25 µM", "value": "1006.47 a.u. and 1004.17 a.u. and 1002.69 a.u."},
      {"measurement": "MST Average", "setting": "IF2-bound 30S IC; nucleotide 2.50 µM", "value": 1012.89, "unit": "a.u."},
      {"measurement": "MST Replicates (a.u.)", "setting": "IF2-bound 30S IC; nucleotide 2.50 µM", "value": "1008.41 a.u. and 1015.77 a.u. and 1014.48 a.u."},
      {"measurement": "MST Average", "setting": "IF2-bound 30S IC; nucleotide 5.00 µM", "value": 1025.14, "unit": "a.u."},
      {"measurement": "MST Replicates (a.u.)", "setting": "IF2-bound 30S IC; nucleotide 5.00 µM", "value": "1023.12 a.u. and 1027.23 a.u. and 1025.07 a.u."},
      {"measurement": "MST Average", "setting": "IF2-bound 30S IC; nucleotide 10.00 µM", "value": 1030.92, "unit": "a.u."},
      {"measurement": "MST Replicates (a.u.)", "setting": "IF2-bound 30S IC; nucleotide 10.00 µM", "value": "1031.01 a.u. and 1031.12 a.u. and 1030.63 a.u."},
      {"measurement": "MST Average", "setting": "IF2-bound 30S IC; nucleotide 20.00 µM", "value": 1013.38, "unit": "a.u."},
      {"measurement": "MST Replicates (a.u.)", "setting": "IF2-bound 30S IC; nucleotide 20.00 µM", "value": "1013.59 a.u. and 1013.77 a.u. and 1012.79 a.u."},
      {"measurement": "Kd", "setting": "IF2-bound 30S IC; nucleotide titration at constant IF2 (1 μM), read-out: KD for the IF2-bound 30S IC", "value": "500 ± 100", "unit": "nM"},
      {"measurement": "kapp of 70S pre-IC formation (LS)", "setting": "[2]", "value": "2.9 ± 0.3", "unit": "s^–1"}
    ]}
  ]
}
